Assay results from patent US20240158446A1, “CYCLIC COMPOUND HAVING SELECTIVE INHIBITORY ACTION ON KRAS OVER HRAS AND NRAS” (CHUGAI SEIYAKU KABUSHIKI KAISHA, priority 2021, published 2024).
Read-outs that look alike come from different tables or passages of the source.

Experiments:
[1] = target: GDP-bound KRAS wild-type protein (Homo sapiens, UniProt P01116); experiment: Binding to KRAS by surface plasmon resonance (SPR), Single Cycle Kinetics
[2] = tested on: human lung cancer strain NCI-H441;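 note: cell proliferation inhibition after four days measured by CellTiter-Glo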
[3] = target: GDP-bound NRAS wild-type protein (Homo sapiens, UniProt P01111); experiment: Binding to NRAS by surface plasmon resonance (SPR), Single Cycle Kinetics; settings: for NRAS/KRAS (ratio of KD value for NRAS to KD value for KRAS): GDP-bound NRAS wild-type protein vs GDP-bound KRAS wild-type protein
[4] = target: GDP-bound HRAS wild-type protein (Homo sapiens, UniProt P01112); experiment: Binding to HRAS by surface plasmon resonance (SPR), Single Cycle Kinetics; settings: for HRAS/KRAS (ratio of KD value for HRAS to KD value for KRAS): GDP-bound HRAS wild-type protein vs GDP-bound KRAS wild-type protein
[5] = SPR, Single Cycle Kinetics, 1:1 binding model, GDP-bound KRAS wild-type protein, read-out: KRAS KD

Sequence of GDP-bound KRAS wild-type protein (P01116 whole entry): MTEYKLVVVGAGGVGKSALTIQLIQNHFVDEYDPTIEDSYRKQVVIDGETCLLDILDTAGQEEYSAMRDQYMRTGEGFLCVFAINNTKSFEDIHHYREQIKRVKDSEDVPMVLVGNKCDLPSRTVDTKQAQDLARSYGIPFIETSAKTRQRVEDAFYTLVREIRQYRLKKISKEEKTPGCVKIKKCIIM
Sequence of GDP-bound HRAS wild-type protein (P01112 whole entry): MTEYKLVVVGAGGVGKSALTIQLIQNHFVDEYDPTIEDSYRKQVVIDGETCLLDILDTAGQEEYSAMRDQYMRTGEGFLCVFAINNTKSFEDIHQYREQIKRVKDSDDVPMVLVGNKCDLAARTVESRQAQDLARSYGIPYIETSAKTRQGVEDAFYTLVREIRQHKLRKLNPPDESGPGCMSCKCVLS
Sequence of GDP-bound NRAS wild-type protein (P01111 whole entry): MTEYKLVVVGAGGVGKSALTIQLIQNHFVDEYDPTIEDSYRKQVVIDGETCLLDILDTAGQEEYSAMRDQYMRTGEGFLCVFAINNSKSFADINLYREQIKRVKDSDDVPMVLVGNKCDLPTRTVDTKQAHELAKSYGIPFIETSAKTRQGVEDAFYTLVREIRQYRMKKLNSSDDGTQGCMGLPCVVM

Compound | IC50 [2] [nM] | Kd [1, 5] [nM] | NRAS/KRAS (ratio of KD value for NRAS to KD value for KRAS) ([3]; SPR, KD ratio class) | HRAS/KRAS (ratio of KD value for HRAS to KD value for KRAS) ([4]; SPR, KD ratio class) | also measured
CCC[C@H]1C(=O)N[C@@H]([C@@H](C)CC)C(=O)N(C2CC2)CC(=O)N(C)[C@H]2C/C=C\CCN(C2=O)[C@@H](Cc2ccc(C(F)(F)F)cc2)C(=O)N(C)CC(=O)N[C@@H](CCc2ccc(C(F)(F)F)c(OC)c2)C(=O)N2C[C@H](OCC)C[C@H]2C(=O)N(C)C2(CCC2)C(=O)N(C)[C@@H](C2CCCC2)C(=O)N(C)[C@H](C(=O)N2CCCC2)CC(=O)N1C [PP3097] |  |  |  |  | Kd ([1]; SPR, Single Cycle Kinetics, 1:1 binding model, read-out: KD value with respect to GDP-bound KRAS wild-type protein): 0.38 nM; Kd ([1]; SPR, Single Cycle Kinetics, GDP-bound KRAS wild-type protein, read-out: KRAS KD): 0.38 nM; IC50 ([2]; read-out: NCI-H441 cell proliferation inhibitory activity, 50% proliferation inhibitory concentration (IC50 value), NCI-H441, four days, CellTiter-Glo): 5.4 nM; NRAS/KRAS (ratio of KD value for NRAS to KD value for KRAS) ([3]; SPR): A (a compound having 10 or more and less than 20 is denoted as A); ratio of the KD value with respect to GDP-bound NRAS wild-type protein to the KD value with respect to KRAS ([3]; SPR, KD(NRAS)/KD(KRAS)): A (a compound having 10 or more and less than 20 is denoted as A); HRAS/KRAS (ratio of KD value for HRAS to KD value for KRAS) ([4]; SPR): A (a compound having 10 or more and less than 20 is denoted as A); ratio of the KD value with respect to GDP-bound HRAS wild-type protein to the KD value with respect to KRAS ([4]; SPR, KD(HRAS)/KD(KRAS)): A (a compound having 10 or more and less than 20 is denoted as A)
CCO[C@@H]1C[C@H]2C(=O)NC3(CCC3)C(=O)N(C)[C@@H](C(CC)CC)C(=O)N(C)[C@H](C(=O)N(C)C)CC(=O)N(C)[C@@H](CC3CC3)C(=O)N[C@@H]([C@@H](C)CC)C(=O)N(C)CC(=O)N(C)[C@H]3C/C=C\CCN(C3=O)[C@@H](Cc3ccc(C(F)(F)F)cc3)C(=O)N(C)CC(=O)N[C@@H](CCc3cc(F)c(Cl)c(F)c3)C(=O)N2C1 [PP1233] | 34.7 | 0.66 | AA (a compound having 20 or more is denoted as AA) | A (a compound having 10 or more and less than 20 is denoted as A) | 
CCO[C@@H]1C[C@H]2C(=O)NC3(CCC3)C(=O)N(C)[C@@H](C3CCCC3)C(=O)N(C)[C@H](C(=O)N(C)C)CC(=O)N(C)[C@@H](CC3CCCC3)C(=O)N[C@@H]([C@@H](C)CC)C(=O)N(C)CC(=O)N(C)[C@H]3C/C=C\CCN(C3=O)[C@@H](Cc3ccc(C(F)(F)F)cc3)C(=O)N(C)CC(=O)N[C@@H](CCc3ccc(Cl)c(Cl)c3)C(=O)N2C1 [PP1254] | 28.3 | 0.2 | AA (a compound having 20 or more is denoted as AA) | A (a compound having 10 or more and less than 20 is denoted as A) | 
CCO[C@@H]1C[C@H]2C(=O)NC3(CCCC3)C(=O)N(C)[C@@H](C3CCCC3)C(=O)N(C)[C@H](C(=O)N(C)C)CC(=O)N(C)[C@@H](CC3CC3)C(=O)N[C@@H]([C@@H](C)CC)C(=O)N(C)CC(=O)N(C)[C@H]3C[C@@H](C)[C@@H](C)CN(C3=O)[C@@H](Cc3ccc(C(F)(F)F)cc3)C(=O)N(C)CC(=O)N[C@@H](CCc3ccc(C(F)(F)F)c(Cl)c3)C(=O)N2C1 [PP1362] | 3.7 | 0.037 | A (a compound having 10 or more and less than 20 is denoted as A) | B (a compound having 3 or more and less than 10 is denoted as B) | 
CCO[C@@H]1C[C@H]2C(=O)NC3(CCC3)C(=O)N(C)[C@@H](C3CCCC3)C(=O)N(C)[C@H](C(=O)N3CCCC3)CC(=O)N(C)[C@@H](CC(F)F)C(=O)N[C@@H]([C@@H](C)CC)C(=O)N(C)CC(=O)N(C)[C@H]3C/C=C\CCN(C3=O)[C@@H](Cc3ccc(C(F)(F)F)cc3)C(=O)N(C)CC(=O)N[C@@H](CCc3cc(F)c(C(F)(F)F)c(F)c3)C(=O)N2C1 [PP1298] | 11.4 | 0.13 | AA (a compound having 20 or more is denoted as AA) | A (a compound having 10 or more and less than 20 is denoted as A) | 
CCO[C@@H]1C[C@H]2C(=O)NC3(CCCC3)C(=O)N(C)[C@@H](C3CCCC3)C(=O)N(C)[C@H](C(=O)N3CCOCC3)CC(=O)N(C)[C@@H](CC)C(=O)N[C@@H]([C@@H](C)CC)C(=O)N(C)CC(=O)N(C)[C@H]3C[C@@H](C)[C@@H](C)CN(C3=O)[C@@H](Cc3ccc(C(F)(F)F)cc3)C(=O)N(C)CC(=O)N[C@@H](CCc3cc(F)c(C(F)(F)F)c(F)c3)C(=O)N2C1 [PP1353] | 3.7 | 0.1 | A (a compound having 10 or more and less than 20 is denoted as A) | B (a compound having 3 or more and less than 10 is denoted as B) | 

Now from value to compound, other results behind:

IC50 [2] [nM] | Kd [1, 5] [nM] | Compound | NRAS/KRAS (ratio of KD value for NRAS to KD value for KRAS) ([3]; SPR, KD ratio class) | HRAS/KRAS (ratio of KD value for HRAS to KD value for KRAS) ([4]; SPR, KD ratio class) | also measured
64 |  | CCC[C@H]1C(=O)N[C@@H]([C@@H](C)CC)C(=O)N(C2CC2)CC(=O)N(C)[C@H]2C/C=C\CCN(C2=O)[C@@H](Cc2ccc(C(F)F)cc2)C(=O)N(C)CC(=O)N[C@@H](CCc2cc(F)c(C(F)(F)F)c(F)c2)C(=O)N2C[C@H](OC(C)C)C[C@H]2C(=O)NC2(CC(C)(C)C2)C(=O)N(C)[C@@H](C(CC)CC)C(=O)N(C)[C@H](C(=O)N(C)C)CC(=O)N1C [PP2529] |  |  | Kd ([1]; SPR Single Cycle Kinetics, GDP-bound KRAS wild-type protein, 1:1 binding model, read-out: KRAS KD): 0.77 nM; NRAS/KRAS (ratio of KD value with respect to GDP-bound NRAS wild-type protein to KD value with respect to KRAS) ([3]; SPR KD ratio NRAS/KRAS, class symbols): AA (a compound having 20 or more is denoted as AA); HRAS/KRAS (ratio of KD value with respect to GDP-bound HRAS wild-type protein to KD value with respect to KRAS) ([4]; SPR KD ratio HRAS/KRAS, class symbols): A (a compound having 10 or more and less than 20 is denoted as A)
87.6 | 0.7 | CCO[C@@H]1C[C@H]2C(=O)NC3(CCCC3)C(=O)N(C)[C@@H](C(CC)CC)C(=O)N(C)[C@H](C(=O)N3CCCC3)CC(=O)N(C)[C@@H](COC)C(=O)N[C@@H]([C@@H](C)CC)C(=O)N(C)CC(=O)N(C)[C@H]3C/C=C\CCN(C3=O)[C@@H](CC3CCC(F)(F)CC3)C(=O)N(C)CC(=O)N[C@@H](CCc3cc(F)c(C(F)(F)F)c(F)c3)C(=O)N2C1 [PP1441] | A (a compound having 10 or more and less than 20 is denoted as A) | A (a compound having 10 or more and less than 20 is denoted as A) | 
2.7 | 0.064 | CCCC[C@H]1C(=O)N[C@@H]([C@@H](C)CC)C(=O)N(C)CC(=O)N(C)[C@H]2C/C=C\CCN(C2=O)[C@@H](Cc2ccc(C(F)(F)F)cc2)C(=O)N(C)CC(=O)N[C@@H](CCc2ccc(C(F)(F)F)c(OC)c2)C(=O)N2C[C@H](OCC)C[C@H]2C(=O)NC2(CC(C)(C)C2)C(=O)N(C)[C@@H](C2CCCC2)C(=O)N(C)[C@H](C(=O)N(C)C)CC(=O)N1C [PP1561] | A (a compound having 10 or more and less than 20 is denoted as A) | B (a compound having 3 or more and less than 10 is denoted as B) | 
6 | 0.08 | CCO[C@@H]1C[C@H]2C(=O)NC3(CCC3)C(=O)N(C)[C@@H](C3CCCC3)C(=O)N(C)[C@H](C(=O)N(C)C)CC(=O)N(C)[C@@H](CC3CCCC3)C(=O)N[C@@H]([C@@H](C)CC)C(=O)N(C)CC(=O)N(C)[C@H]3C/C=C\CCN(C3=O)[C@@H](Cc3ccc(C)cc3)C(=O)N(C)CC(=O)N[C@@H](CCc3cc(F)c(C(F)(F)F)c(F)c3)C(=O)N2C1 [PP1411, (2S,8S,12R,14S,20S,23S,27S,30S,36S,38Z)-20-cyclopentyl-27-(cyclopentylmethyl)-8-[2-[3,5-difluoro-4-(trifluoromethyl)phenyl]ethyl]-12-ethoxy-N,N,4,19,22,26,32,35-octamethyl-30-[(1S)-1-methylpropyl]-3,6,9,15,18,21,25,28,31,34,42-undecaoxo-2-(p-tolylmethyl)spiro[1,4,7,10,16,19,22,26,29,32,35-undecazatricyclo[34.5.1.0^10,14]dotetracont-38-ene-17,1′-cyclobutane]-23-carboxamide] | A (a compound having 10 or more and less than 20 is denoted as A) | B (a compound having 3 or more and less than 10 is denoted as B) | 
465 | 0.99 | CCO[C@@H]1C[C@H]2C(=O)NC3(CCC3)C(=O)N(C)[C@@H](C3CCCC3)C(=O)N(C)[C@H](C(=O)N(C)C)CC(=O)N(C)[C@@H](CC(C)C)C(=O)N[C@@H]([C@@H](C)CC)C(=O)N(C)CC(=O)N(C)[C@H]3C/C=C\CCN(C3=O)[C@@H](Cc3ccc(F)cc3)C(=O)N(C)CC(=O)N[C@@H](CCc3ccc4sccc4c3)C(=O)N2C1 [PP1427] | A (a compound having 10 or more and less than 20 is denoted as A) | B (a compound having 3 or more and less than 10 is denoted as B) | 
